In BindingDB's records for doi:10.1021/jm00090a012 (National Institute of Diabetes and Digestive and Kidney …, 1992):

Legend:
[1] = Binding affinity against phencyclidine (PCP) receptor from guinea pig brain, using [3H]TCP as radioligand.
[2] = Binding affinity against sigma receptor from guinea pig brain, using [3H](+)-3-PPP as radioligand.
[3] = Binding affinity against sigma receptor from guinea pig brain, using [3H](+)-pentazocine as radioligand.
[4] = biological target: Sigma non-opioid intracellular receptor 1 (Cavia porcellus) (UniProt Q60492); experiment: as above
Sequence of Sigma non-opioid intracellular receptor 1 (Cavia porcellus) (Q60492 whole entry, looked up): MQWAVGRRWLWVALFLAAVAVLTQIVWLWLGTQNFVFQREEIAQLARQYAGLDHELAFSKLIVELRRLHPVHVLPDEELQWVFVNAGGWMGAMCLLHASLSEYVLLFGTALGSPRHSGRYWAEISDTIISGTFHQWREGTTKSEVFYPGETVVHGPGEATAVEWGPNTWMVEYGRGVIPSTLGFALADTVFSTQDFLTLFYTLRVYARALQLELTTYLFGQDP

Structure (SMILES): CCCCCN1CC[C@@]2(C)c3cc(O)ccc3CC1[C@H]2C [(6R,11S)-6,11-Dimethyl-3-pentyl-1,2,3,4,5,6-hexahydro-2,6-methano-benzo[d]azocin-8-ol]
- Ki [1]: 9040 nM

Structure (SMILES): FCCCCCN1CCN(CCc2ccc(Cl)c(Cl)c2)CC1
- Ki [2]: 0.86 nM
- Ki [3]: 0.52 nM

Structure (SMILES): FCCCN(CCc1ccc(Cl)c(Cl)c1)CCN1CCCC1
- Ki [2]: 4.22 nM

Structure (SMILES): FCCCN1CCN(CCc2ccc(Cl)c(Cl)c2)CC1
- Ki [4]: 0.39 nM

Structure (SMILES): Clc1ccc(CCN2CCN(CCCI)CC2)cc1Cl
- Ki [2]: 1.3 nM
- Ki [3]: 1.2 nM
